Test results as given in patent US12060347B2 (BRISTOL-MYERS SQUIBB COMPANY, priority 2016, dated 2024).

Legend:
[1] = molecular target: T1, protease-activated receptor type 4 (PAR4) (Homo sapiens, UniProt Q96RI0); conditions: abstract of Lee et al. 2001; cited from earlier work
T1 sequence (Q96RI0 18-385): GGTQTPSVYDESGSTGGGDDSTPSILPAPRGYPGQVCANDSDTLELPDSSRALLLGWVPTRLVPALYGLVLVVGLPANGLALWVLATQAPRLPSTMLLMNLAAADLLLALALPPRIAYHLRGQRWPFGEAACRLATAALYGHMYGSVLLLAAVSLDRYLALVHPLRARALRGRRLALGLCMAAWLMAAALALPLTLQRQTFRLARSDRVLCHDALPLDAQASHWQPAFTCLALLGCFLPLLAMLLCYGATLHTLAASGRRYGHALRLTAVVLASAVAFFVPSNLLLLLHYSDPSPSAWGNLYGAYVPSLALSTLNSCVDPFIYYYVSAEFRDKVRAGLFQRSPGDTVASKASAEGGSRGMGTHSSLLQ

PAR1 = molecular target: T2, PAR1 (Homo sapiens, UniProt P25116); conditions: ACS patients, TRACER phase III trial; cited from earlier work
T2 sequence (P25116 22-425): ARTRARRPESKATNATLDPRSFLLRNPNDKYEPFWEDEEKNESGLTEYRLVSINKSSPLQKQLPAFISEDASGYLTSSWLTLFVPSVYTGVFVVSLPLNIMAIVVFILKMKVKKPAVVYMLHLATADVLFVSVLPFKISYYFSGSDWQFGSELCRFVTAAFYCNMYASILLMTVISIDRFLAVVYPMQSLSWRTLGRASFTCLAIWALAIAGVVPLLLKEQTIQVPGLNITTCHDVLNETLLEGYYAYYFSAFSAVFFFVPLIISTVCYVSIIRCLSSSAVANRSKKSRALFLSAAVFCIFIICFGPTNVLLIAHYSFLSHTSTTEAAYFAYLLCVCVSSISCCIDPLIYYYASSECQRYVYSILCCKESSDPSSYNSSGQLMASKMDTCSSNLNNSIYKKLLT

human PAR4 = molecular target: T3, human PAR4 (Homo sapiens, UniProt Q96RI0); experiment: PAR4 FLIPR assay: antagonism of agonist-peptide-induced calcium mobilization in PAR4-expressing HEK293 cells; format: cell-based; conditions: H-Ala-Phe(4-F)-[…]NH2-induced intracellular calcium mobilization, 11-point curves
T3 construct: expressed in transfected cells; host or cells: HEK293 PAR4 Clone 1.2A (BMS Arctic ID 383940)
T3 sequence (Q96RI0 18-385): T1 sequence (Q96RI0 18-385)

| Compound | IC50 (human PAR4) [nM] | further results |
| --- | --- | --- |
| CCOC(=O)c1ccc(-c2nn(Cc3ccccc3)c3ccccc23)cc1 [YD-3, ethyl 4-(1-benzyl-1H-indazol-3-yl)benzoate] |  | inhibition of PAR4-dependent platelet activation [1]: selective and potent inhibitor |
| CCOC(=O)N[C@@H]1CC[C@@H]2[C@@H](C1)C[C@H]1C(=O)O[C@H](C)[C@H]1[C@H]2/C=C/c1ccc(-c2cccc(F)c2)cn1 [vorapaxar] |  | cardiovascular events (PAR1): did not significantly reduce; risk of major bleeding (PAR1): significantly increased |
| Cc1cc(-c2nc3ccc(OCc4ccccc4)cc3s2)c2ncc(OC(F)F)nc2c1 [Example 7, 6-(benzyloxy)-2-(2-(difluoromethoxy)-7-methylquinoxalin-5-yl)benzo[d]thiazole] | 800 |  |
| COc1cnc2c(-c3nc4c(Cl)c(F)c(OC[C@@H](C)OC(=O)Nc5cccnc5C)cc4s3)cc(C)cc2n1 [Example 590, (R)-1-((4-chloro-5-fluoro-2-(2-methoxy-7-methylquinoxalin-5-yl)benzo[d]thiazol-6-yl)oxy)propan-2-yl (2-methylpyridin-3-yl)carbamate] | 25 |  |
| CCc1cnc2c(-c3cc4ccccc4o3)cc(C)cc2n1 [Example 132, 5-(benzofuran-2-yl)-2-ethyl-7-methylquinoxaline] | 59 |  |
| COc1cnc2c(-c3nc4cc(F)c(OC(C)C)cc4s3)cc(CO)cc2n1 [Example 248, (8-(5-fluoro-6-isopropoxybenzo[d]thiazol-2-yl)-3-methoxyquinoxalin-6-yl)methanol] | 19 |  |
| COCc1cnc2c(-c3nc4c(C5CC5)cc(OCCNS(=O)(=O)c5ccc(F)cc5)cc4s3)cc(C)cc2n1 [Example 105, N-(2-(4-cyclopropyl-2-(2-(methoxymethyl)-7-methylquinoxalin-5-yl)benzo[d]thiazol-6-yloxy)ethyl)-4-fluorobenzenesulfonamide] | 8.1 |  |
| COc1cnc2c(-c3nc4c(C)cc(OCCNS(=O)(=O)c5ccc(F)cc5)cc4s3)cc(C(O)CO)cc2n1 (centres unmarked) [Example 236, N-(2-((2-(7-(1,2-dihydroxyethyl)-2-methoxyquinoxalin-5-yl)-4-methylbenzo[d]thiazol-6-yl)oxy)ethyl)-4-fluorobenzenesulfonamide] | 140 |  |
| COc1cnc2c(-c3nc4cc(F)c(OC[C@@H](C)OC(=O)Nc5cnc(OCCC(C)(C)O)nc5)cc4s3)cc(C)cc2n1 [Example 569, (R)-1-((5-fluoro-2-(2-methoxy-7-methylquinoxalin-5-yl)benzo[d]thiazol-6-yl)oxy)propan-2-yl (2-(3-hydroxy-3-methylbutoxy)pyrimidin-5-yl)carbamate] | 8.2 |  |

Continued, in another order:

| IC50 (human PAR4) [nM] | Compound | further results |
| --- | --- | --- |
| 4.6 | COc1cc(C(O)c2cccc(C(F)(F)F)c2)c2nc(-c3cc(C)cc4nc(OC)cnc34)sc2c1 (centres unmarked) [Example 642, (6-methoxy-2-(2-methoxy-7-methylquinoxalin-5-yl)benzo[d]thiazol-4-yl)(3-(trifluoromethyl)phenyl)methanol] |  |
| 0.8 | COc1cnc2c(-c3nc4c(Cl)c(F)c(OC[C@@H](C)OC(=O)Nc5cnc(C)nc5)cc4s3)cc(C)cc2n1 [Example 589, (R)-1-((4-chloro-5-fluoro-2-(2-methoxy-7-methylquinoxalin-5-yl)benzo[d]thiazol-6-yl)oxy)propan-2-yl (2-methylpyrimidin-5-yl)carbamate] |  |
| 2.8 | COCc1cnc2c(-c3nc4c(OC)cc(OC)cc4s3)cc(C)cc2n1 [Example 258, 4,6-dimethoxy-2-(2-(methoxymethyl)-7-methylquinoxalin-5-yl)benzo[d]thiazole] |  |
| 2.1 | COCc1cnc2c(-c3nc4c(F)cc(F)cc4s3)cc(C)cc2n1 [Example 257, 4,6-difluoro-2-(2-(methoxymethyl)-7-methylquinoxalin-5-yl)benzo[d]thiazole] |  |
| 0.8 | COCc1cnc2c(-c3nc4c(C)cc(OC(F)(F)F)cc4s3)cc(C)cc2n1 [Example 262, 2-(2-(methoxymethyl)-7-methylquinoxalin-5-yl)-4-methyl-6-(trifluoromethoxy)benzo[d]thiazole] |  |
| 1.3 | COc1cnc2c(-c3nc4cc(F)c(O[C@@H](C)[C@@H](C)OC(=O)Nc5cnnc(C)c5)cc4s3)cc(C)cc2n1 [Example 418, (2R,3S)-3-((5-fluoro-2-(2-methoxy-7-methylquinoxalin-5-yl)benzo[d]thiazol-6-yl)oxy)butan-2-yl (6-methylpyridazin-4-yl)carbamate] |  |
| 5.1 | COc1cnc2c(-c3nc4cc(F)c(O[C@@H](C)[C@@H](C)OC(=O)Nc5ccc(C)nc5)cc4s3)cc(C#N)cc2n1 [Example 823, (2R,3S)-3-((2-(7-cyano-2-methoxyquinoxalin-5-yl)-5-fluorobenzo[d]thiazol-6-yl)oxy)butan-2-yl (6-methylpyridin-3-yl)carbamate] |  |
| 0.5 | COCc1cnc2c(-c3nc4c(C(O)C(C)(C)C)cc(OC)cc4s3)cc(C)cc2n1 (single isomer, unassigned) [Example 164, 1-(6-methoxy-2-(2-(methoxymethyl)-7-methylquinoxalin-5-yl)benzo[d]thiazol-4-yl)-2,2-dimethylpropan-1-ol] |  |
| 0.9 | CCOc1cnc2c(-c3nc4cc(F)c(O[C@@H](C)[C@@H](C)OC(=O)Nc5cnc(CO)nc5)cc4s3)cc(C)cc2n1 [Example 529, (2R,3S)-3-((2-(2-ethoxy-7-methylquinoxalin-5-yl)-5-fluorobenzo[d]thiazol-6-yl)oxy)butan-2-yl (2-(hydroxymethyl)pyrimidin-5-yl)carbamate] |  |
| 0.7 | COc1cnc2c(-c3nc4cc(F)c(OCCOC(=O)Nc5ccc6[nH]c(=O)oc6c5)cc4s3)cc(C)cc2n1 [Example 343, 2-((5-fluoro-2-(2-methoxy-7-methylquinoxalin-5-yl)benzo[d]thiazol-6-yl)oxy)ethyl (2-oxo-2,3-dihydrobenzo[d]oxazol-6-yl)carbamate] |  |
